One experiment concerns 24-HC in the brain. The experiment in a line: Quantification test of 24-HC in mouse brain after repeated oral administration. It is filed as in vivo. The settings on record: 10 mg/kg orally once a day for 3 days; female C57BL/6N mice; brain 24-HC at 16 hours after the third administration; relative values with the control group as 100%. How it is done:
Animals used were 6-week-old female C57BL/6N mice (3 mice/group). A test compound was suspended in a 0.5% aqueous methylcellulose [133-14255 WAKO] solution (1 mg/mL). The body weight of the mice was measured, and the solution was forcibly administered orally and repeatedly once a day for 3 days. At 16 hours after the third administration, half of the brain was harvested, and the amount of 24-HC was measured.
The wet weight of the brain was measured, and the brain was homogenized with 4-fold amount of saline. This solution was used as a brain extract. The 24-HC in the brain extract was extracted with an acetonitrile solution (98% acetonitrile, 1.98% methanol, 0.02% formic acid), and quantified by HPLC. The average value of 24-HC amount was calculated and the results are shown in relative values with the control group as 100%.
For `O=C(Nc1cc(-c2cnco2)cc(C(F)(F)F)c1)C1CC1` [Example 17, N-(3-(1,3-oxazol-5-yl)-5-(trifluoromethyl)phenyl) cyclopropanecarboxamide], the “Decreasing Rate in 10 mg/kg (%)” value is 80%.
Same read-out and setting: the result for `O=C(C1CC1)N1CCc2c(-c3cnco3)cc(C(F)(F)F)cc21` [Example 36, cyclopropyl(4-(1,3-oxazol-5-yl)-6-(trifluoromethyl)-2,3-dihydro-1H-indol-1-yl)methanone] reads 73%.

Still in this experiment, the particulars now being: 30 mg/kg orally once a day for 3 days; female C57BL/6N mice; brain 24-HC at 16 hours after the third administration; relative values with the control group as 100%.
As to `O=C(C1CCOCC1)N1CCc2c(-c3cnco3)cc(C(F)(F)F)cc21` [Example 87, (4-(1,3-oxazol-5-yl)-6-(trifluoromethyl)-2,3-dihydro-1H-indol-1-yl)(tetrahydro-2H-pyran-4-yl)methanone], the “Decreasing Rate in 30 mg/kg (%)” value amounted to 56%.
With `O[C@H]1CCN(c2cc(-c3cnco3)cc(C(F)(F)F)c2)C1` [Example 95, (3S)-1-(3-(1,3-oxazol-5-yl)-5-(trifluoromethyl)phenyl)pyrrolidin-3-ol], the “Decreasing Rate in 30 mg/kg (%)” value is 66%.

In the next experiment the target is T1, human CH24H (Homo sapiens, UniProt Q9Y6A2).
T1 construct: Using Full-Length Mammalian Gene Collection No. 4819975 (Invitrogen) as a template; made in house; host or cells: FreeStyle 293-F cells (transient transfection with pcDNA3.1(+)/hCH24H); cell lysate supernatant
T1 sequence (Q9Y6A2 whole entry): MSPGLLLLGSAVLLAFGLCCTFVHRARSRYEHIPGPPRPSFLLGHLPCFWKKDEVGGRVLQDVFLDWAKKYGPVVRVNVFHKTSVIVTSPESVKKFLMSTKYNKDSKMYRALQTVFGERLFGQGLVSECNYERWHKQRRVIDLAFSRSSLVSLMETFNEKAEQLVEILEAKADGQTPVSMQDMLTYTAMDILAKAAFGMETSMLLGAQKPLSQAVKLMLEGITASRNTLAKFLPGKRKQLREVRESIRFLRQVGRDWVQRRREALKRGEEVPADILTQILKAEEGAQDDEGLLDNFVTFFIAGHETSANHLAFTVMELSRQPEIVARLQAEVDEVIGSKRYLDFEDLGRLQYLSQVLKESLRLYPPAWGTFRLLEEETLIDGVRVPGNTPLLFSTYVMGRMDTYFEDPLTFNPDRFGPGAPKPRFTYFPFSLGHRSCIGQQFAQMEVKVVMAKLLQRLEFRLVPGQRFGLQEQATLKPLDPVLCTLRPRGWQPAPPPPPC
The experiment in a line: Measurement of CH24H inhibitory activity (24-HC produced from [14C] cholesterol by human CH24H lysate). Type of experiment: biochemical. The settings on record: 1 μM test compound, [14C] cholesterol 15 μM, 37° C. for 5 hr, read-out: Inhibitory Rate in 1 μM (%). How it is done:
A plasmid DNA for expressing human CH24H in a FreeStyle 293 cell was produced as follows. Using Full-Length Mammalian Gene Collection No. 4819975 (Invitrogen) as a template, and the following two kinds of synthesized DNAs: 5′-[…]-3′ (SEQ ID NO: 1) and 5′-[…]-3′ (SEQ ID NO: 2), PCR was performed to amplify 91-1625 bp region of human CH24H (BC022539). The obtained fragment was cloned using TOPO TA Cloning Kit (Invitrogen). The obtained fragment was subcloned to pcDNA3.1(+) digested with BamHI and XhoI to give a plasmid DNA for human CH24H expression (pcDNA3.1(+)/hCH24H).
The expression of human CH24H was performed using FreeStyle 293 Expression System (Invitrogen). According to the manual attached to FreeStyle 293 Expression System and using the plasmid DNA for human CH24H expression (pcDNA3.1(+)/hCH24H) constructed in Experimental Example 1, a transient expression using FreeStyle 293-F cell was performed. After transfection, the cells were cultured at 37° C., 8% CO2 with shaking at 125 rpm for 2 days. The cells were collected by centrifugation, and suspended in a suspension buffer (100 mM potassium phosphate (pH 7.4), 0.1 mM EDTA, 1 mM DTT, 20% Glycerol). The suspended product was disrupted by a polytron homogenizer (manufactured by Kinematica), and centrifuged at 9000×g for 10 min, and the supernatant was collected. The collected supernatant was cryopreserved (−80° C.) as a human CH24H lysate standard product.
For the measurement of CH24H inhibitory activity, using the human CH24H lysate prepared in Experimental Example 2, the amount of 24-HC produced from cholesterol by catalytic activity of CH24H was measured in the presence of a test compound, and compared with that measured in the absence of the test compound. That is, a test compound solution at various concentrations was mixed with a reaction buffer (50 mM potassium phosphate containing 0.1% BSA and Complete, EDTA-free, pH 7.4) and human CH24H lysate. Then, [^14C] cholesterol (53 mCi/mmol specific activity, 15 μM) was added, and CH24H reaction was performed at 37° C. for 5 hr. After completion of the reaction, a quenching solution consisting of chloroform/methanol/distilled water (2:2:1 v/v) was added, and the resulting 24-HC was extracted by shaking. The extract was applied to silica gel thin layer chromatography (ethyl acetate:toluene=4:6), and the obtained ^14C-24HC fraction was measured with BAS2500 (Fujifilm Corporation).
The inhibitory rate (%) was calculated from the ratio of radioactivity in the presence of a test compound relative to the radioactivity in the absence of the test compound.
As for `O=C(Nc1cc(-c2cnco2)cc(C(F)(F)F)c1)c1cccc(Cl)c1` [Example 1, 3-chloro-N-(3-(1,3-oxazol-5-yl)-5-(trifluoromethyl)phenyl)benzamide], the inhibition at 1 µM turned out to be 89%.
On the same count and under the same terms, the result for `CC(C)c1cc(NS(=O)(=O)c2cccc(Cl)c2)cc(-c2cnco2)c1` [Example 4, 3-chloro-N-(3-isopropyl-5-(1,3-oxazol-5-yl)phenyl)benzenesulfonamide] reads 89%; that for `O=C(Nc1cc(-c2cnco2)cc(C2CC2)c1)c1cccc(Cl)c1` [Example 5, 3-chloro-N-(3-cyclopropyl-5-(1,3-oxazol-5-yl)phenyl)benzamide], 79%.
Take `O=S(=O)(Nc1cc2c(c(-c3cnco3)c1)OCC2)c1cccc(Cl)c1` [Example 10, 3-chloro-N-(7-(1,3-oxazol-5-yl)-2,3-dihydro-1-benzofuran-5-yl)benzenesulfonamide]: the inhibition at 1 µM came out at 83%.
On the same count and under the same terms, the result for `O=C(Nc1cc(-c2cnco2)cc(C(F)(F)F)c1)C1CC1` [Example 17, N-(3-(1,3-oxazol-5-yl)-5-(trifluoromethyl)phenyl) cyclopropanecarboxamide] reads 89%; that for `O=C(Nc1cc(-c2cnco2)cc(C(F)F)c1)C1CC1` [Example 31, N-(3-(difluoromethyl)-5-(1,3-oxazol-5-yl)phenyl)cyclopropanecarboxamide], 90%; that for `O=C(C1CC1)N1CCc2c(-c3cnco3)cc(C(F)(F)F)cc21` [Example 36, cyclopropyl(4-(1,3-oxazol-5-yl)-6-(trifluoromethyl)-2,3-dihydro-1H-indol-1-yl)methanone], 92%.
For `O=C(Cn1ccnc1)Nc1cc(-c2cnco2)cc(C(F)(F)F)c1` [Example 43, 2-(1H-imidazol-1-yl)-N-(3-(1,3-oxazol-5-yl)-5-(trifluoromethyl)phenyl)acetamide], the inhibition at 1 µM worked out at 90%.
As for `O=C(C1CC1)N1CCCOc2c(-c3cnco3)cc(C(F)(F)F)cc21` [Example 53, cyclopropyl(9-(1,3-oxazol-5-yl)-7-(trifluoromethyl)-3,4-dihydro-1,5-benzoxazepin-5(2H)-yl)methanone], the inhibition at 1 µM came out at 52%.
Still for that read-out and setting: the figure for `O=C(C1CC1)N1CCOc2c(-c3cnco3)cc(C(F)(F)F)cc21` [Example 54, cyclopropyl(8-(1,3-oxazol-5-yl)-6-(trifluoromethyl)-2,3-dihydro-4H-1,4-benzoxazin-4-yl)methanone] is 92%.
In the case of `FC(F)(F)c1cc(NCc2ccccn2)cc(-c2cnco2)c1` [Example 56, 3-(1,3-oxazol-5-yl)-N-(pyridin-2-ylmethyl)-5-(trifluoromethyl)aniline], the inhibition at 1 µM stood at 88%.
On the same count and under the same terms, the result for `O=C(Nc1cc2c(c(-c3cnco3)c1)OCC2)C1CC1` [Example 58, N-(7-(1,3-oxazol-5-yl)-2,3-dihydro-1-benzofuran-5-yl)cyclopropanecarboxamide] reads 84%; that for `O=C(Nc1cc(C(F)(F)F)cc(-c2cnco2)n1)C1CC1` [Example 61, N-(6-(1,3-oxazol-5-yl)-4-(trifluoromethyl)pyridin-2-yl)cyclopropanecarboxamide], 88%; that for `CC(C)C(=O)N1CCc2c(-c3cnco3)cc(C(F)(F)F)cc21` [Example 80, 2-methyl-1-(4-(1,3-oxazol-5-yl)-6-(trifluoromethyl)-2,3-dihydro-1H-indol-1-yl)propan-1-one], 91%.
Still for that read-out and setting: the result for `O=C(N1CCOCC1)N1CCc2c(-c3cnco3)cc(C(F)(F)F)cc21` [Example 83, morpholin-4-yl(4-(1,3-oxazol-5-yl)-6-(trifluoromethyl)-2,3-dihydro-1H-indol-1-yl)methanone] reads 92%; that for `O=C(C1CCOCC1)N1CCc2c(-c3cnco3)cc(C(F)(F)F)cc21` [Example 87, (4-(1,3-oxazol-5-yl)-6-(trifluoromethyl)-2,3-dihydro-1H-indol-1-yl)(tetrahydro-2H-pyran-4-yl)methanone], 97%; that for `FC1(F)CCN(c2cc(-c3cnco3)cc(C(F)(F)F)c2)CC1` [Example 89, 4,4-difluoro-1-(3-(1,3-oxazol-5-yl)-5-(trifluoromethyl)phenyl)piperidine], 93%.
`OC1(Cc2ccccc2)CCN(c2cc(-c3cnco3)cc(C(F)(F)F)c2)CC1` [Example 92, 4-benzyl-1-(3-(1,3-oxazol-5-yl)-5-(trifluoromethyl)phenyl)piperidin-4-ol]: the inhibition at 1 µM came to 89%.
As for `O[C@H]1CCN(c2cc(-c3cnco3)cc(C(F)(F)F)c2)C1` [Example 95, (3S)-1-(3-(1,3-oxazol-5-yl)-5-(trifluoromethyl)phenyl)pyrrolidin-3-ol], the inhibition at 1 µM was 96%.
Turning to `OC1CCN(c2cc(C(F)(F)F)cc(-c3cnco3)n2)C1` (stereo not drawn) [Example 96, 1-(6-(1,3-oxazol-5-yl)-4-(trifluoromethyl)pyridin-2-yl)pyrrolidin-3-ol], the inhibition at 1 µM turned out to be 91%.
With `OC1CN(c2cc(-c3cnco3)cc(C(F)(F)F)c2)CCC1Cc1ccccc1` (stereo not drawn) [Example 100, 4-benzyl-1-(3-(1,3-oxazol-5-yl)-5-(trifluoromethyl)phenyl)piperidin-3-ol], the inhibition at 1 µM stood at 97%.
On to `CC(=O)N1CCN(c2cc(-c3cnco3)cc(C(F)(F)F)c2)CC1` [Example 107, 1-(4-(3-(1,3-oxazol-5-yl)-5-(trifluoromethyl)phenyl)piperazin-1-yl)ethanone], for which the inhibition at 1 µM was found to be 91%.
On to `CS(=O)(=O)NC1CCN(c2cc(-c3cnco3)cc(C(F)(F)F)c2)C1` (stereo not drawn) [Example 119, N-(1-(3-(1,3-oxazol-5-yl)-5-(trifluoromethyl)phenyl)pyrrolidin-3-yl)methanesulfonamide], for which the inhibition at 1 µM amounted to 95%.
Turning to `CC1(C)CCN(c2cc(-c3cnco3)cc(C(F)(F)F)c2)C1=O` [Example 127, 3,3-dimethyl-1-(3-(1,3-oxazol-5-yl)-5-(trifluoromethyl)phenyl)pyrrolidin-2-one], the inhibition at 1 µM stood at 91%.
In the case of `O=C(N1CCc2c(-c3cnco3)cc(C(F)(F)F)cc21)N1C[C@@H]2C[C@H]1CO2` [Example 128, (1S,4S)-2-oxa-5-azabicyclo[2.2.1]hept-5-yl(4-(1,3-oxazol-5-yl)-6-(trifluoromethyl)-2,3-dihydro-1H-indol-1-yl)methanone], the inhibition at 1 µM turned out to be 97%.
Consider `CC1(C)CCN(c2cc(C(F)(F)F)cc(-c3cnco3)n2)C1=O` [Example 134, 3,3-dimethyl-1-(6-(1,3-ozazol-5-yl)-4-(trifluoromethyl)pyridin-2-yl)pyrrolidin-2-one], for which the inhibition at 1 µM came out at 89%.

The record behind these values is patent US9624184B2, “Heterocyclic compound” (TAKEDA PHARMACEUTICAL COMPANY LIMITED, priority 2013, dated 2017).
